This is an account of results in PubChem BioAssay (NCI).

Test systems include PC-3 prostate; NCI-H226 lung; 786-0 renal; HOP-92 NSCLC; NCI-H23 lung; MDA-N; A498 renal; RPMI-8226 leukemia; OVCAR-4 ovarian; MCF7 breast; SK-MEL-28 melanoma; COLO 205 colon; SNB-19 CNS; NCI/ADR-RES ovarian; IGROV1 ovarian; CAKI-1 renal.
What all share (experiment): inhibition of tumour cell growth, NCI panel, 48 h

Each structure is given as a SMILES string.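 Step 1: Grow cells in 96-well plates. Step 2: Expose to compound for 48 hours at 5 concentrations. Step 3: Interpolate endpoints linearly; if unreached, use highest concentration. TGI denotes the concentration required for complete inhibition of growth.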

Turning to `Cc1nc(N)c(N2CCN(C(=O)O)CC2)c(=O)[nH]1`, the TGI in the assay with PC-3 prostate, in the assay with NCI-H226 lung, with 786-0 renal, in the assay with HOP-92 NSCLC, in the assay with NCI-H23 lung and with MDA-N was above 100 µM each time. Also, the TGI in the assay with A498 renal, with RPMI-8226 leukemia, in the assay on OVCAR-4 ovarian, in the assay on MCF7 breast, in the assay on SK-MEL-28 melanoma and in the assay on COLO 205 colon was above 100 µM each time. The TGI in the assay with SNB-19 CNS and in the assay on NCI/ADR-RES ovarian was above 100 µM each time.

With `CC#CC(O)(C(=O)OCCCN(C)C)C1CCCCC1` (configuration not stated), the TGI in the assay with PC-3 prostate, with NCI-H226 lung, with 786-0 renal, in the assay on HOP-92 NSCLC, with NCI-H23 lung and with MDA-N was above 100 µM throughout. Further, the TGI in the assay on A498 renal, in the assay with RPMI-8226 leukemia, with IGROV1 ovarian, with MCF7 breast, in the assay on SK-MEL-28 melanoma and in the assay with COLO 205 colon was above 100 µM each time. For the same compound, the TGI in the assay on SNB-19 CNS and with NCI/ADR-RES ovarian was above 100 µM throughout.

Regarding `CCOc1cc(C2SCC(=O)N2c2ccc(Oc3ccc(Cl)cc3)c(Cl)c2)ccc1O` (configuration not stated), the TGI worked out at 33.4 µM in the assay with PC-3 prostate; 31.1 µM with NCI-H226 lung; 45.8 µM with 786-0 renal; 33.7 µM in the assay on HOP-92 NSCLC; 32.3 µM in the assay with NCI-H23 lung; 41.9 µM with MDA-N. Also, the TGI in the assay on CAKI-1 renal came to 32.6 µM; in the assay on RPMI-8226 leukemia it was 80.1 µM; in the assay on OVCAR-4 ovarian, 31.1 µM; with IGROV1 ovarian, 32 µM; in the assay on MCF7 breast, 56.4 µM; in the assay on SK-MEL-28 melanoma, 38.2 µM. The values for the TGI with COLO 205 colon, with SNB-19 CNS and in the assay on NCI/ADR-RES ovarian were 41.3 µM, 34.8 µM and 36.9 µM, respectively.

`CC(=O)C1=C(C)N2C(=NC3=C(CCc4ccccc43)C2c2ccc(F)cc2)S1` (configuration not stated): the TGI in the assay with PC-3 prostate, in the assay on NCI-H226 lung, in the assay with 786-0 renal, in the assay with HOP-92 NSCLC, in the assay with NCI-H23 lung and with MDA-N was above 100 µM in each case. Moreover, the TGI in the assay on A498 renal is above 100 µM; in the assay with RPMI-8226 leukemia, 85 µM; in the assay on OVCAR-4 ovarian, above 100 µM; in the assay with IGROV1 ovarian, above 100 µM; in the assay on MCF7 breast it was above 100 µM; with SK-MEL-28 melanoma it was above 100 µM. In addition, the TGI in the assay on COLO 205 colon, in the assay with SNB-19 CNS and in the assay with NCI/ADR-RES ovarian was above 100 µM each time.

Turning to `CCCCNC(=O)c1cc2c(cc1Cl)Sc1nccn1S2(=O)=O`, the TGI with PC-3 prostate, in the assay on 786-0 renal, in the assay with HOP-92 NSCLC, in the assay with NCI-H23 lung, in the assay with MDA-N and in the assay on A498 renal was above 100 µM in each case. The TGI in the assay on CAKI-1 renal was 34.3 µM; in the assay on RPMI-8226 leukemia it was above 100 µM; with OVCAR-4 ovarian, above 100 µM; with IGROV1 ovarian it was above 100 µM; in the assay on MCF7 breast, above 100 µM; in the assay with SK-MEL-28 melanoma it was above 100 µM. Besides, the TGI in the assay on COLO 205 colon, in the assay on SNB-19 CNS and with NCI/ADR-RES ovarian was above 100 µM each time.

`NC(Cc1ccc(OCc2ccccc2)cn1)C(=O)O` (configuration not stated): the TGI in the assay with PC-3 prostate, in the assay with NCI-H226 lung, in the assay on 786-0 renal, with NCI-H23 lung, with MDA-N and in the assay on A498 renal was above 100 µM in each case. The TGI with CAKI-1 renal, in the assay on RPMI-8226 leukemia, in the assay on IGROV1 ovarian, in the assay on MCF7 breast, with SK-MEL-28 melanoma and with COLO 205 colon was above 100 µM each time. Also, the TGI in the assay with SNB-19 CNS and with NCI/ADR-RES ovarian was above 100 µM in each case.

Consider `Cc1ccn2c(=O)cc(CN3CCOCC3)nc2c1`, for which the TGI with PC-3 prostate, in the assay with NCI-H226 lung, in the assay with 786-0 renal, with HOP-92 NSCLC, in the assay with NCI-H23 lung and in the assay with MDA-N was above 100 µM in each case. Further, the TGI in the assay with CAKI-1 renal, in the assay on RPMI-8226 leukemia, in the assay on OVCAR-4 ovarian, in the assay on IGROV1 ovarian, with MCF7 breast and with SK-MEL-28 melanoma was above 100 µM in each case. The TGI with COLO 205 colon, with SNB-19 CNS and with NCI/ADR-RES ovarian was above 100 µM in each case.

For the compound `CC(Nc1ncc2c(n1)-c1ccccc1OC2)C(=O)O` (configuration not stated), the TGI in the assay with PC-3 prostate, in the assay on NCI-H226 lung, in the assay on 786-0 renal, in the assay on HOP-92 NSCLC, in the assay with NCI-H23 lung and with MDA-N was above 100 µM in each case. Moreover, the TGI in the assay with CAKI-1 renal, with RPMI-8226 leukemia, in the assay on OVCAR-4 ovarian, in the assay on IGROV1 ovarian, in the assay on MCF7 breast and in the assay with SK-MEL-28 melanoma was above 100 µM throughout. The TGI in the assay on COLO 205 colon, with SNB-19 CNS and with NCI/ADR-RES ovarian was above 100 µM throughout.

`CCOC(=O)c1c[nH]c2c(Sc3ccccc3)nccc2c1=O`: the TGI in the assay on PC-3 prostate, with NCI-H226 lung, in the assay with 786-0 renal, with HOP-92 NSCLC, with NCI-H23 lung and in the assay with MDA-N was above 100 µM throughout. The TGI in the assay with A498 renal, with CAKI-1 renal, in the assay on OVCAR-4 ovarian, in the assay on IGROV1 ovarian, in the assay on MCF7 breast and in the assay with SK-MEL-28 melanoma was above 100 µM in each case. The TGI in the assay with COLO 205 colon, in the assay with SNB-19 CNS and in the assay with NCI/ADR-RES ovarian was above 100 µM in each case.
